Reference: patent publication US12492197B2, “3,5-disubstituted pyrazole compounds as kinase inhibitors and uses thereof” (IMPACT THERAPEUTICS (SHANGHAI), INC, priority 2019, dated 2025)

Columns and labels:
CHK1 kinase = biological target: T1, CHK1 kinase (Homo sapiens, UniProt O14757); assay: CHK1 kinase inhibition, ADP-Glo kinase assay; format: biochemical; conditions: ATP 10 μM, CHK1 1 ng/well; for inhibition at 0.01 µM: compound concentration 10 nM, read-out: Inh % (inhibitory effect on CHK1 kinase activity); for IC50: read-out: IC50 (inhibitory effect on CHK1 kinase activity)
T1 construct: purchased Promega V1941
T1 sequence (O14757 1-476): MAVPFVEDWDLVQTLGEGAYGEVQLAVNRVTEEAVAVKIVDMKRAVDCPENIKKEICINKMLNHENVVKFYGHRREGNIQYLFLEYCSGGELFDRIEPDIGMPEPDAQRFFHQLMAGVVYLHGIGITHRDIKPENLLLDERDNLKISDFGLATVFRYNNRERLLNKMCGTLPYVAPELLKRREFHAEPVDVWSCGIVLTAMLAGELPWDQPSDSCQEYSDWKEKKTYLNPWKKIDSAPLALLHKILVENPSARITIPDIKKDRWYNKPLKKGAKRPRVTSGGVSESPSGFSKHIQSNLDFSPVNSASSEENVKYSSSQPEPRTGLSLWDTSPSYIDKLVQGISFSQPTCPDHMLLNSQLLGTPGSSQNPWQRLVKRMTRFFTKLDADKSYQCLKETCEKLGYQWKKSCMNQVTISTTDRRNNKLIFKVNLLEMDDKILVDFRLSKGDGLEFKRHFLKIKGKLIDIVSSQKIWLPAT
Experimental: 2 μL of kinase CHK1 (#V1941, Promega), 1 μL of compound diluted with buffer, and 2 μL of ATP substrate was successively added to a 384-well plate (final concentration of CHK1 was 1 ng/well, ATP was 10 μM). The positive control wells contained CHK1, ATP and DMSO whereas the negative control wells contained ATP, DMSO without enzyme. The mixtures were centrifuged at 1000 rpm for 1 minute and kept in darkness at room temperature for 1 hour to react. Then, 5 μL of ADP-Glo reagent was added to each well and incubated at room temperature for 40 minutes. At the end of incubation, 10 μL of kinase detection reagent was added to each well, and the relative chemiluminescence values (RLU) were measured on Varioskan® Flash (Thermo). The following calculation was performed: Inhibition rate %=(RLU of positive control−RLU of compound)/(RLU of positive control−RLU of negative control)×100. Data were analyzed using GraphPad Prism6.0 and fitted using the curve equation: Y=Bottom+(Top-Bottom)/(1+10^((Log IC50−X)*HillSlope)), and IC50 values were calculated.

[1] = test system: human breast cancer cell HCC1806; assay: Proliferation of HCC1806 cells, MTT assay; format: cell-based; conditions: HCC1806, 72 h, 3 days treatment, read-out: IC50 (inhibition of proliferation of HCC1806)
Experimental: Newly revived HCC1806 cells (purchased from Guangzhou Genio) were cultured and passaged for at least three generations before use. Cells were used at 90% confluency for experiments. Cells were digested with trypsinase and centrifuged at 800 rpm for 5 minutes. The cell pellets were resuspended in fresh RPMI1640 medium and cells were counted. Cells were seeded on 96-well cell culture plates at 2000 cells/well and incubated overnight at 37° C., 5% CO2. The stock solutions of the test substances (including the test compounds and the reference compound) were serially diluted to 8 concentrations with DMSO at a ratio of 1:3. Five μL of each of the serially diluted solutions were added to 120 μL of medium (diluted by 25 times) and mixed by shaking. […] The cell culture plates were returned to incubator at 37° C., 5% CO2 for 3 days. At the end of treatment the cell viability was determined by MTT colorimetric assay. Cell culture medium in each well was replaced by 100 μL/well of serum-free fresh medium containing MTT (0.5 mg/mL), and the culture was continued for additional 4 hours.
(§1) Data was analyzed by GraphPad Prism 6.0. The inhibitory effects of compounds on cell proliferation were plotted based on cell viability vs. the logarithm of compound concentration. Cell viability %=(ODcompound−ODbackground)/(ODDMSO−ODbackground)×100.

[2] = test system: human pancreatic cancer cell SW1990; assay: Proliferation of SW1990 cells, MTT assay; format: cell-based; conditions: SW1990, 120 h, 5 days treatment, read-out: IC50 (inhibition of proliferation of SW1990)
Experimental: Newly revived SW1990 cells (purchased from Shanghai Fuheng Biology) were cultured and passaged for at least three generations before use. Cells were used at about 90% confluency for experiments. Cells were digested with trypsinase and centrifuged at 800 rpm for 5 minutes. The cell pellets were resuspended in fresh DMEM medium and cells were counted. Cells were seeded on 96-well cell culture plates at 5000 cells/well and incubated overnight at 37° C., 5% CO2. The stock solutions of the test substances (including the test compounds and the reference compound) were serially diluted to 8 concentrations with DMSO at a ratio of 1:3. 5 μL of each serially diluted solutions was added to 120 μL of medium (diluted by 25 times) and mixed by shaking. […] The cell culture plates were returned to incubator at 37° C. and 5% CO2 for 5 days. At the end of the treatment the cell viability was determined by MTT colorimetric assay. Cell culture medium in each well was replaced by 100 μL/well of serum-free fresh medium containing MTT (0.5 mg/mL), and the culture was continued for additional 4 hours. Medium was then discarded and 100 μL/well of DMSO was added.
as §1

[3] = test system: human colon cancer cell LoVo; assay: Proliferation of LoVo cells, MTT assay; format: cell-based; conditions: 96 h, 4 days treatment, read-out: IC50 (inhibition of proliferation of LoVo)
Experimental: Newly revived LoVo cells (purchased from Shanghai Cell Institute) were cultured and passaged for at least three generations before use. Cells were used at 90% confluence for experiment. Cells were digested with trypsinase and centrifuged at 800 rpm for 5 minutes and the supernatant was discarded. The cell pellets were resuspended in fresh RPMI1640 medium and counted. Cells were seeded on 96-well cell culture plates at 5000 cells/well and incubated overnight at 37° C., 5% CO2. The stock solutions of the test substances (including the test compounds and the reference compound) were serially diluted to 8 concentrations with DMSO at a ratio of 1:3. 5 μL of each series diluted solutions was added to 120 μL of medium (diluted by 25 times) and mixed by shaking. […] The cell culture plates were returned to incubator at 37° C. and 5% CO2 for 4 days. At the end of treatment, the cell viability was determined by MTT colorimetric assay. Cell culture medium in each well was replaced by 100 μL/well of serum-free DMEM medium containing MTT (0.5 mg/mL), and the culture was continued for additional 4 hours. Medium was then discarded and 100 μL/well of DMSO was added.
as §1

| Compound | inhibition at 0.01 µM (CHK1 kinase) [%] | IC50 [1] [nM] | IC50 [2] [nM] | IC50 (CHK1 kinase) [nM] | IC50 [3] [nM] |
| --- | --- | --- | --- | --- | --- |
| COc1cccc(OC[C@@H]2CN(C)CCO2)c1-c1cc(Nc2cnc(C#N)cn2)n[nH]1 [Example 4, (S)-5-((5-(2-methoxy-6-((4-methylmorpholin-2-yl)methoxy)phenyl)-1H-pyrazol-3-yl)amino)pyrazine-2-carbonitrile] | 82 | 139 | 123 | – | – |
| COc1cccc(OC[C@H]2COCCN2)c1-c1cc(Nc2cnc(C#N)cn2)n[nH]1 [Example 7, (R)-5-((5-(2-methoxy-6-(morpholin-3-ylmethoxy)phenyl)-1H-pyrazol-3-yl)amino)pyrazine-2-carbonitrile] | 95 | 37.6 | – | – | 30.1 |
| CCc1cnc(Nc2cc(-c3c(OC)cccc3OC[C@H]3CCCNC3)[nH]n2)cn1 [Example 27, (S)-5-ethyl-N-(5-(2-methoxy-6-(piperidin-3-ylmethoxy)phenyl)-1H-pyrazol-3-yl)pyrazin-2-amine] | 95 | 129 | – | – | 83.8 |
| N#Cc1cnc(Nc2cc(-c3c(Cl)cccc3OC[C@H]3CCCNC3)[nH]n2)cn1 [Example 47, (S)-5-((5-(2-chloro-6-(piperidin-3-ylmethoxy)phenyl)-1H-pyrazol-3-yl)amino)pyrazine-2-carbonitrile] | 40 | 381 | – | – | 533 |
| COc1cccc(OC[C@H]2CNCCS2)c1-c1cc(Nc2cnc(C#N)cn2)n[nH]1 [Example 76-B, (R)-5-((5-(2-methoxy-6-(thiomorpholin-2-ylmethoxy)phenyl)-1H-pyrazol-3-yl)amino)pyrazine-2-carbonitrile] | – | 18.5 | – | 1.21 | 17.8 |
| COc1cccc(OC[C@H]2CCCNC2)c1-c1cc(Nc2ccc(C#N)nn2)n[nH]1 [Example 25, (S)-6-((5-(2-methoxy-6-(piperidin-3-ylmethoxy)phenyl)-1H-pyrazol-3-yl)amino)pyridazine-3-carbonitrile] | 91 | 113 | – | – | 104 |
| COc1cccc(OC[C@H]2CCCN(C)C2)c1-c1cc(Nc2cnc(C#N)cn2)n[nH]1 [Example 32, (S)-5-((5-(2-methoxy-6-((1-methylpiperidin-3-yl)methoxy)phenyl)-1H-pyrazol-3-yl)amino)pyrazine-2-carbonitrile] | 91 | 31.7 | – | – | 25.6 |

Now from value to molecule:

| inhibition at 0.01 µM (CHK1 kinase) [%] | IC50 [1] [nM] | IC50 [2] [nM] | IC50 (CHK1 kinase) [nM] | IC50 [3] [nM] | Compound |
| --- | --- | --- | --- | --- | --- |
| 93 | 11.8 | 11.8 | – | – | COc1cc(Cl)cc(OC[C@@H]2CNCCO2)c1-c1cc(Nc2cnc(C#N)cn2)n[nH]1 [Example 16, (S)-5-((5-(4-chloro-2-methoxy-6-(morpholin-2-ylmethoxy)phenyl)-1H-pyrazol-3-yl)amino)pyrazine-2-carbonitrile] |
| – | 21.6 | – | 1.78 | 21.2 | CCOc1cccc(OC[C@H]2CCCNC2)c1-c1cc(Nc2cnc(C#N)cn2)n[nH]1 [Example 35, (S)-5-((5-(2-ethoxy-6-(piperidin-3-ylmethoxy)phenyl)-1H-pyrazol-3-yl)amino)pyrazine-2-carbonitrile] |
| 92 | 170 | – | – | 106 | N#Cc1cnc(Nc2cc(-c3c(F)cc(Cl)cc3OC[C@H]3CCCNC3)[nH]n2)cn1 [Example 57, (S)-5-((5-(4-chloro-2-fluoro-6-(piperidin-3-ylmethoxy)phenyl)-1H-pyrazol-3-yl)amino)pyrazine-2-carbonitrile] |
| – | 3.5 | – | 0.52 | 3.2 | COc1cc(F)cc(OC[C@H]2CCCNC2)c1-c1cc(Nc2cnc(C#N)cn2)n[nH]1 [Example 38, (S)-5-((5-(4-fluoro-2-methoxy-6-(piperidin-3-ylmethoxy)phenyl)-1H-pyrazol-3-yl)amino)pyrazine-2-carbonitrile] |
| – | 8.8 | – | 1.57 | 9.5 | COc1cc(C(F)(F)F)cc(OC[C@H]2CCCNC2)c1-c1cc(Nc2cnc(C#N)cn2)n[nH]1 [Example 45, (S)-5-((5-(2-methoxy-6-(piperidin-3-ylmethoxy)-4-(trifluoromethyl)phenyl)-1H-pyrazol-3-yl)amino)pyrazine-2-carbonitrile] |
| 91 | 31.4 | – | – | 31.2 | COc1cc(C(F)(F)F)cc(OC[C@@H]2CNCCO2)c1-c1cc(Nc2cnc(C#N)cn2)n[nH]1 [Example 19, (S)-5-((5-(2-methoxy-6-(morpholin-2-ylmethoxy)-4-(trifluoromethyl)phenyl)-1H-pyrazol-3-yl)amino)pyrazine-2-carbonitrile] |
| – | 30.5 | – | 0.77 | 28.8 | COc1c(F)ccc(OC[C@H]2CCCNC2)c1-c1cc(Nc2cnc(C#N)cn2)n[nH]1 [Example 37, (S)-5-((5-(3-fluoro-2-methoxy-6-(piperidin-3-ylmethoxy)phenyl)-1H-pyrazol-3-yl)amino)pyrazine-2-carbonitrile] |
| – | 60 | – | 2.27 | 60.8 | N#Cc1cnc(Nc2cc(-c3c(F)cc(Br)cc3OC[C@H]3CCCNC3)[nH]n2)cn1 [Example 59, (S)-5-((5-(4-bromo-2-fluoro-6-(piperidin-3-ylmethoxy)phenyl)-1H-pyrazol-3-yl)amino)pyrazine-2-carbonitrile] |
| 63 | 698 | – | – | 807 | CC(C)Oc1cccc(OC[C@H]2CCCNC2)c1-c1cc(Nc2cnc(C#N)cn2)n[nH]1 [Example 36, (S)-5-((5-(2-isopropoxy-6-(piperidin-3-ylmethoxy)phenyl)-1H-pyrazol-3-yl)amino)pyrazine-2-carbonitrile] |
| – | 21.6 | – | 1.58 | 18 | Cc1cc(F)c(-c2cc(Nc3cnc(C#N)cn3)n[nH]2)c(OC[C@H]2CCNC2)c1 [Example 62, (S)-5-((5-(2-fluoro-4-methyl-6-(pyrrolidin-3-ylmethoxy)phenyl)-1H-pyrazol-3-yl)amino)pyrazine-2-carbonitrile] |
